Assay results: patent publication US12673041B2, “4-aminobut-2-enamide derivatives and salt thereof” (TAIHO PHARMACEUTICAL CO., LTD., priority 2019, dated 2026)

Experiments:
[1] = biological target: T1, GMPPNP-bound KRAS G12C protein and cRAF RAS-binding domain (cRAF-RBD) (Homo sapiens, UniProt P01116, G12C); assay: Inhibitory activity on interaction between KRAS G12C and cRAF (Alpha technology); assay type: biochemical; details: GMPPNP-bound KRAS G12C incubated with compound at 25° C. for 1 hour, then cRAF-RBD, Alpha signal; read-out: IC50
T1 construct: made in house; host or cells: E. coli
Description: Interaction between recombinant K-Ras4B G12C mutant protein (amino acids 1-169, SEQ ID NO:2) and cRAF RAS-binding domain (cRAF-RBD, amino acids 50-132, Jena Biosciences GmbH) was measured using Alpha technology (PerkinElmer Inc.).
Recombinant KRAS G12C protein with an N-terminal His-tag was expressed in E. coli and purified by affinity chromatography. To prepare GTP-bound form and GDP-bound form of KRAS G12C protein, 50 μM KRAS G12C protein was incubated with 1 mM GMPPNP (Guanosine-5′-[(β,γ)-imido]triphosphate, Tetralithium salt) (Jena Bioscience GmbH) and 1 mM GDP, respectively, in a loading buffer (20 mM Tris-HCl (pH 7.5), 50 mM NaCl, 1 mM DTT and 2.5 mM EDTA) for 1 hour on ice. After the incubation, MgCl2 was added to a final concentration of 10 mM, followed by incubation at room temperature for 30 minutes. The mixture was allowed to pass through a NAP-5 column to remove free nucleotides and purified, and the resultant nucleotide-bound KRAS G12C protein was used for compound evaluation.
For the measurement of the inhibitory activity of compounds on interaction between KRAS G12C and cRAF-RBD, GMPPNP-bound KRAS G12C protein was incubated with various concentrations of compound in a reaction buffer (20 mM Tris-HCl (pH 7.5), 100 mM NaCl, 1 mM MgCl2, 1 mM TCEP, 0.1% Tween 20) at 25° C. for 1 hour. After the incubation, recombinant cRAF-RBD and Alpha detection reagents were added and incubated at room temperature for 1.5 hours for binding. Interaction 5 of KRAS G12C and cRAF-RBD was monitored by measuring Alpha signal. Inhibition % was calculated using the signal from the reaction without test compound (DMSO control) as 0% inhibition and the signal from the reaction using GDP-bound KRAS G12C in place of GMPPNP-bound KRAS G12C as 100% inhibition. IC50 values were calculated from dose titration curve using curve fitting by XLfit software (IDBS).

[2] = biological target: Gppcp-bound recombinant K-Ras4B G12C mutant protein (amino acids 1-169, C51S/C80L/C118S) (Homo sapiens, UniProt P01116, C118S/C51S/C80L/G12C); assay: KRASG12C binding assay (LC-MS compound binding rate); details: test compound final concentration 0.5 μM, 25° C., 1 hour
Description: As test compounds for the KRASG12C binding assay, the compounds obtained in the “Preparation of Compounds” section were used. Sample solutions each containing a test compound were prepared in the form of a 10 mM DMSO solution.
Gppcp-bound recombinant K-Ras4B G12C mutant protein (amino acids 1-169, C51S/C80L/C118S, SEQ ID NO:1) was diluted with a buffer (1×TBS, 0.1 mM TCEP, 0.25 mM MgCl2, 50 μM Gppcp) to prepare a 50 nM protein solution. K-Ras4B is the major splicing variant of K-Ras. Amino acid sequence of residues 1 to 150 including the compounds' binding region of K-Ras4B is exactly same as that of K-Ras4A, the other splicing variant (Oncotarget. 2016 Jul. 19; 7(29): 46717-46733). A sample solution containing 10 mM test compound was diluted ten-fold with DMSO to make a 1 mM sample solution, and then diluted twenty-fold with DMSO to make a 50 μM sample solution. 1 μL of a 50 μM sample solution was added to 100 μL of a 50 nM protein solution to adjust the final concentration of a test compound to be 0.5 μM in the mixture. The mixtures were stored in an incubator at 25° C. for 1 hour, and 10 μL of a 1×TBS solution containing 2% formic acid was added to stop the reaction, followed by LC-MS measurement. LC-MS measurement was performed using Xevo G2-S Q-Tof manufactured by Waters, and reverse-phase chromatography was performed with a desalting column. A mass spectrum of positive ions was obtained by electrospray. For a mass spectrum, a spectrum of polyvalent ions was collectively converted to a molecular weight by using OpenLynx software by the MaxEnt technique, and a compound binding rate was calculated from the ratio of the signal intensity of a peak that corresponds to the molecular weight of the protein to the signal intensity of a peak that corresponds to the molecular weight of the protein conjugated with the compound.
The binding assay of the test compounds was conducted at a final concentration of 0.5 μM. A binding rate of 80% or more is rated “A”, a binding rate of 60% or more and less than 80% is rated “B”, a binding rate of 40% or more and less than 60% is rated “C”, a binding rate of 20% or more and less than 40% is rated “D”, and a binding rate of less than 20% is rated “E”. N.D.=not determined. Binding rate % is the ratio of KRAS signal intensity at the molecular weight of one molecule adduct to the sum of all the KRAS signal intensity (unbound form and adducts) in mass spectrum.
Thus, binding rate 100% means that only the one molecule adduct was observed without any unbound KRAS.

Row | SMILES | IC50 [1] | binding rate [2]
1 | COCc1nc2cc(-c3cccc(NC(=O)c4ccc(NC(=O)/C=C/CN[C@H]5CC[C@H](OC)CC5)c(C#N)c4)c3)c(C(F)(F)F)cc2n1C [Example 21, 3-cyano-4-((E)-4-(((1r,4r)-4-methoxycyclohexyl)amino)but-2-enamido)-N-(3-(2-(methoxymethyl)-1-methyl-6-(trifluoromethyl)-1H-benzo[d]imidazol-5-yl)phenyl)benzamide] | 220 nM | A (A binding rate of 80% or more is rated “A”)
2 | COCc1nc2cc(-c3cccc(NC(=O)c4ccc(NC(=O)/C=C/CNC5C[C@H]6CC[C@@H](C5)O6)c(C#N)c4)c3)c(C(F)(F)F)cc2n1C (stereo partly drawn) [Example 22, 4-((E)-4-(((1R,5S)-8-oxabicyclo[3.2.1]octan-3-yl)amino)but-2-enamido)-3-cyano-N-(3-(2-(methoxymethyl)-1-methyl-6-(trifluoromethyl)-1H-benzo[d]imidazol-5-yl)phenyl)benzamide] | 140 nM | A (A binding rate of 80% or more is rated “A”)
3 | CO[C@H](C)c1nc2cc(-c3cccc(NC(=O)c4ccc(NC(=O)/C=C/CN[C@H]5CC[C@H](OC)CC5)c(C#N)c4)c3)c(C(F)(F)F)cc2n1C [Example 23, 3-cyano-4-((E)-4-(((1r,4r)-4-methoxycyclohexyl)amino)but-2-enamido)-N-(3-(2-((R)-1-methoxyethyl)-1-methyl-6-(trifluoromethyl)-1H-benzo[d]imidazol-5-yl)phenyl)benzamide] | 220 nM | A (A binding rate of 80% or more is rated “A”)
4 | COCc1nc2cc(-c3cccc(NC(=O)c4ccc(NC(=O)/C=C/CNC5(C)CCC6(CC5)OCCO6)c(C#N)c4)c3)c(C(F)(F)F)cc2n1C [Example 24, (E)-3-cyano-N-(3-(2-(methoxymethyl)-1-methyl-6-(trifluoromethyl)-1H-benzo[d]imidazol-5-yl)phenyl)-4-(4-((8-methyl-1,4-dioxaspiro[4.5]decan-8-yl)amino)but-2-enamido)benzamide] | 150 nM | A (A binding rate of 80% or more is rated “A”)
5 | COCc1nc2cc(-c3cccc(NC(=O)c4ccc(NC(=O)/C=C/CNC5CC6C(C5)C6(F)F)c(C#N)c4)c3)c(C(F)(F)F)cc2n1C (stereo not shown) [Example 25, (E)-3-cyano-4-(4-((6,6-difluorobicyclo[3.1.0]hexan-3-yl)amino)but-2-enamido)-N-(3-(2-(methoxymethyl)-1-methyl-6-(trifluoromethyl)-1H-benzo[d]imidazol-5-yl)phenyl)benzamide] | 250 nM | A (A binding rate of 80% or more is rated “A”)
6 | COCc1nc2cc(-c3cccc(NC(=O)c4ccc(NC(=O)/C=C/CNC5CCC5)c(C#N)c4)c3)c(C(F)(F)F)cc2n1C [Example 26, (E)-3-cyano-4-(4-(cyclobutylamino)but-2-enamido)-N-(3-(2-(methoxymethyl)-1-methyl-6-(trifluoromethyl)-1H-benzo[d]imidazol-5-yl)phenyl)benzamide] | 420 nM | C (a binding rate of 40% or more and less than 60% is rated “C”)
7 | COCc1nc2cc(-c3cccc(NC(=O)c4ccc(NC(=O)/C=C/CNC5CCCCC5)c(C#N)c4)c3)c(C(F)(F)F)cc2n1C [Example 27, (E)-3-cyano-4-(4-(cyclohexylamino)but-2-enamido)-N-(3-(2-(methoxymethyl)-1-methyl-6-(trifluoromethyl)-1H-benzo[d]imidazol-5-yl)phenyl)benzamide] | 350 nM | B (a binding rate of 60% or more and less than 80% is rated “B”)
8 | CO[C@H]1C[C@H](NC/C=C/C(=O)Nc2ccc(C(=O)Nc3cccc(-c4cc5nc6n(c5cc4C(F)(F)F)CCC6)c3)cc2C#N)C1 [Example 28, 3-cyano-4-((E)-4-(((1r,3r)-3-methoxycyclobutyl)amino)but-2-enamido)-N-(3-(7-(trifluoromethyl)-2,3-dihydro-1H-benzo[d]pyrrolo[1,2-a]imidazol-6-yl)phenyl)benzamide] | 100 nM | A (A binding rate of 80% or more is rated “A”)
9 | CO[C@H]1CC[C@H](NC/C=C/C(=O)Nc2ccc(C(=O)c3ccc4c(-c5cc6ncn(C)c6cc5C(F)(F)F)cccn34)cc2)CC1 [Example 39, (E)-4-(((1r,4r)-4-methoxycyclohexyl)amino)-N-(4-(8-(1-methyl-6-(trifluoromethyl)-1H-benzo[d]imidazol-5-yl)indolizine-3-carbonyl)phenyl)but-2-enamide] | 300 nM | A (A binding rate of 80% or more is rated “A”)
10 | COc1ccccc1-c1cccn2c(C(=O)c3ccc(NC(=O)/C=C/CN[C@H]4CC[C@H](OC)CC4)c(C#N)c3)ccc12 [Example 40, (E)-N-(2-cyano-4-(8-(2-methoxyphenyl)indolizine-3-carbonyl)phenyl)-4-(((1r,4r)-4-methoxycyclohexyl)amino)but-2-enamide] | 200 nM | B (a binding rate of 60% or more and less than 80% is rated “B”)
11 | Cn1cnc2cc(-c3cccn4c(C(=O)c5ccc(NC(=O)/C=C/[C@H]6CCCN6)c(C#N)c5)ccc34)c(C(F)(F)F)cc21 [Example 42, (R,E)-N-(2-cyano-4-(8-(1-methyl-6-(trifluoromethyl)-1H-benzo[d]imidazol-5-yl)indolizine-3-carbonyl)phenyl)-3-(pyrrolidin-2-yl)acrylamide] | 360 nM | D (a binding rate of 20% or more and less than 40% is rated “D”)
12 | COc1cccc(F)c1-c1cccn2c(C(=O)c3ccc(NC(=O)/C=C/CN[C@H]4CC[C@H](OC)CC4)c(C#N)c3)ccc12 [Example 43, (E)-N-(2-cyano-4-(8-(2-fluoro-6-methoxyphenyl)indolizine-3-carbonyl)phenyl)-4-(((1r,4r)-4-methoxycyclohexyl)amino)but-2-enamide] | 170 nM | A (A binding rate of 80% or more is rated “A”)
13 | CO[C@H]1CC[C@H](NC/C=C/C(=O)Nc2ccc(C(=O)c3ccc4c(-c5ccccc5Cl)cccn34)cc2C#N)CC1 [Example 45, (E)-N-(4-(8-(2-chlorophenyl)indolizine-3-carbonyl)-2-cyanophenyl)-4-(((1r,4r)-4-methoxycyclohexyl)amino)but-2-enamide] | 320 nM | B (a binding rate of 60% or more and less than 80% is rated “B”)
14 | CO[C@H]1CC[C@H](NC/C=C/C(=O)Nc2ccc(C(=O)c3ccc4c(-c5c(O)cccc5F)cccn34)cc2C#N)CC1 [Example 46, (E)-N-(2-cyano-4-(8-(2-fluoro-6-hydroxyphenyl)indolizine-3-carbonyl)phenyl)-4-(((1r,4r)-4-methoxycyclohexyl)amino)but-2-enamide] | 170 nM | A (A binding rate of 80% or more is rated “A”)
